Source: patent US6403807B1, “Bridged fluorescent dyes, their preparation and their use in assays” (SurroMed, Inc., priority 1999, dated 2002)

Columns and labels:
[1] = UV-Visible absorption spectra of the dyes; format: physicochemical
Procedure: (§1) UV-Visible absorption spectra were recorded on Shimadzu UV-2401PC Spectrophotometer, while fluorescence measurements were performed Spex-Fluorlog2 Fluorometer (Instrument S.A. Inc.).
(§2) The spectral properties of the dyes of the previous Examples were measured. […] Other materials absorbed at the […] krypton laser wavelength.

[2] = Fluorescence measurements (excitation/emission) of the dyes; format: physicochemical
Procedure: as §1, §2

δmax (absorption maximum) ([1]; CH2Cl2) [nm]	δem (emission wavelength) ([2]; CH2Cl2) [nm]	Structure (SMILES)	further results
656	674	CC1(C)C2=[N+](CCCCCCCCCCCCN3/C(=C/C=C/C=C/2)C(C)(C)c2ccccc23)c2ccccc21.[Br-] [Dye 19]	–
648	–	CC1(C)C2=[N+](CCCCCCCCCCCCN3/C(=C/C4=C([O-])C(=C/2)/C4=O)C(C)(C)c2ccccc23)c2ccccc21 [Dye 20, Dodecanyl Bridged Indoleninium Squaraine Dye]	–
760	790	CC1(C)C2=[N+](CCCCCCCCCCCCN3/C(=C/C=C/C=C/C=C/2)C(C)(C)c2ccccc23)c2ccccc21.[Br-] [Dye 21, Dodecanyl Bridged Indoleninium Heptamethine Cyanine Dye]	–
696	716	CC1(C)C2=[N+](CCCCCCCCCCCCN3/C(=C/C=C/C=C/2)C(C)(C)c2c3ccc3ccccc23)c2ccc3ccccc3c21.[Br-] [Dye 23, Dodecanyl Bridged Benzindoleninium Pentamethine Cyanine dye]	–
671	681	CC1(C)C2=[N+](CCCCCCCCCCCCN3/C(=C/C4=C([O-])C(=C/2)/C4=O)C(C)(C)c2c3ccc3ccccc23)c2ccc3ccccc3c21 [Dye 24, Dodecanyl Bridged Benzindoleninium Squaraine Dye]	–
800	820	CC1(C)C2=[N+](CCCCCCCCCCCCN3/C(=C/C=C/C=C/C=C/2)C(C)(C)c2c3ccc3ccccc23)c2ccc3ccccc3c21 [Dye 25, Dodecanyl Bridged Benzindoleninium Heptamethine Dye]	–

Continued, compound first:

Structure (SMILES)	δmax (absorption maximum) ([1]; CH2Cl2) [nm]	δem (emission wavelength) ([2]; CH2Cl2) [nm]	further results
CC1(C)C2=[N+](CCCCCC(=O)Nc3cc(cc(C(=O)O)c3)NC(=O)CCCCCN3/C(=C/C=C/C=C/2)C(C)(C)c2cc(S(=O)(=O)O)ccc23)c2ccc(S(=O)(=O)[O-])cc21 [Dye 16, Bridged Pentamethine Indoleninium Cyanine Dye]	–	–	e (extinction coefficient at δmax) ([1]; PBS buffer): 250,000; δmax (absorption maximum) ([1]; PBS buffer): 648 nm; δem (emission wavelength) ([2]; PBS): 674 nm; δex (excitation wavelength) ([2]; PBS): 648 nm
CC1(C)C2=[N+](CCCCCC(=O)Nc3cc(cc(C(=O)O)c3)NC(=O)CCCCCN3/C(=C/C=C/C=C/C=C/2)C(C)(C)c2cc(S(=O)(=O)O)ccc23)c2ccc(S(=O)(=O)[O-])cc21 [Dye 17, Bridged Heptamethine Indoleninium Cyanine Dye]	–	–	δmax (absorption maximum) ([1]; PBS buffer): 748 nm; δem (emission wavelength) ([2]; PBS): 780 nm; δex (excitation wavelength) ([2]; PBS): 748 nm
CC1(C)C2=[N+](CCCCCC(=O)Nc3cc(cc(C(=O)O)c3)NC(=O)CCCCCN3/C(=C/C=C/2)C(C)(C)c2cc(S(=O)(=O)[O-])ccc23)c2ccc(S(=O)(=O)O)cc21 [Dye 27, Bridged Trimethine Indolenium Cyanine Dye]	–	–	δmax (absorption maximum) ([1]; solvent not stated): 563 nm
CC1(C)C2=CC3=C(S)/C(=C\C4=[N+](CCCCCC(=O)Nc5cc(cc(C(=O)O)c5)NC(=O)CCCCCN2c2ccc(S(=O)(=O)O)cc21)c1ccc(S(=O)(=O)[O-])cc1C4(C)C)C3=S [Dye 28, Bridged Thiosquarylium Dye]	–	–	δmax (absorption maximum) ([1]; solvent not stated): 649 nm
